The text below walks through data of PubChem BioAssay AID1259407 (Chemical Carcinogenesis Research Information System (CCRIS), 2018).

The source made the active and inactive calls. The rule behind the calls is not given here.

The data set concerns CCRIS mutagenicity, Ames/micronucleus/aberration tests. Nature of the data set: CCRIS mutagenicity studies.
Where [1] appears, read: Test System: AMES SALMONELLA TYPHIMURIUM, Strain/Indicator: TA98, Metabolic Activation: HAMSTER, LIVER, S-9, AROCLOR 1254, Method: STANDARD PLATE.
[2] abbreviates: Test System: AMES SALMONELLA TYPHIMURIUM, Strain/Indicator: TA98, Metabolic Activation: NONE, Method: STANDARD PLATE.
The mark [3] stands for this setting: Test System: AMES SALMONELLA TYPHIMURIUM, Strain/Indicator: TA98, Metabolic Activation: RAT, LIVER, S-9, AROCLOR 1254, Method: STANDARD PLATE.
The mark [4] stands for this setting: Test System: AMES SALMONELLA TYPHIMURIUM, Strain/Indicator: TA100, Metabolic Activation: HAMSTER, LIVER, S-9, AROCLOR 1254, Method: STANDARD PLATE.
[5] abbreviates: Test System: AMES SALMONELLA TYPHIMURIUM, Strain/Indicator: TA100, Metabolic Activation: NONE, Method: STANDARD PLATE.
Where [6] appears, read: Test System: AMES SALMONELLA TYPHIMURIUM, Strain/Indicator: TA100, Metabolic Activation: RAT, LIVER, S-9, AROCLOR 1254, Method: STANDARD PLATE.
Where [7] appears, read: Test System: AMES SALMONELLA TYPHIMURIUM, Strain/Indicator: TA1535, Metabolic Activation: HAMSTER, LIVER, S-9, AROCLOR 1254, Method: STANDARD PLATE.
The mark [8] stands for this setting: Test System: AMES SALMONELLA TYPHIMURIUM, Strain/Indicator: TA1535, Metabolic Activation: NONE, Method: STANDARD PLATE.
Setting [9] is: Test System: AMES SALMONELLA TYPHIMURIUM, Strain/Indicator: TA1535, Metabolic Activation: RAT, LIVER, S-9, AROCLOR 1254, Method: STANDARD PLATE.
[10] abbreviates: Test System: AMES SALMONELLA TYPHIMURIUM, Strain/Indicator: TA1537, Metabolic Activation: HAMSTER, LIVER, S-9, AROCLOR 1254, Method: STANDARD PLATE.
The mark [11] stands for this setting: Test System: AMES SALMONELLA TYPHIMURIUM, Strain/Indicator: TA1537, Metabolic Activation: NONE, Method: STANDARD PLATE.
Setting [12] is: Test System: AMES SALMONELLA TYPHIMURIUM, Strain/Indicator: TA1537, Metabolic Activation: RAT, LIVER, S-9, AROCLOR 1254, Method: STANDARD PLATE.
The mark [13] stands for this setting: Test System: MOUSE LYMPHOMA, Strain/Indicator: L5178Y (TK+/TK-), Metabolic Activation: NONE, Method: SUSPENSION/PLATE.
The mark [14] stands for this setting: Test System: MOUSE LYMPHOMA, Strain/Indicator: L5178Y (TK+/TK-), Metabolic Activation: RAT, LIVER, S-9, AROCLOR 1254, Method: SUSPENSION/PLATE.
[15] abbreviates: Test System: AMES SALMONELLA TYPHIMURIUM, Strain/Indicator: TA1538, Metabolic Activation: NONE, Method: STANDARD PLATE.
The mark [16] stands for this setting: Test System: AMES SALMONELLA TYPHIMURIUM, Strain/Indicator: TA1538, Metabolic Activation: RAT, LIVER, S-9, AROCLOR 1254, Method: STANDARD PLATE.

With `COc1cc([C@@H]2c3cc4c(cc3[C@H](O)[C@H]3COC(=O)[C@H]23)OCO4)cc(OC)c1OC`, the mutagenic call reads like this: under setting [1], “inactive; negative”; under setting [2], “inactive; negative”; under setting [3], “inactive; negative”; under setting [4], “inactive; negative”; under setting [5], “inactive; negative”; under setting [6], “inactive; negative”. The mutagenic call (Test System: AMES SALMONELLA TYPHIMURIUM, Strain/Indicator: TA102, Metabolic Activation: NONE, Method: STANDARD PLATE) is “inactive; negative”; the mutagenic call (Test System: AMES SALMONELLA TYPHIMURIUM, Strain/Indicator: TA102, Metabolic Activation: RAT, LIVER, S-9, AROCLOR 1254, Method: STANDARD PLATE) was “inactive; negative”; the mutagenic call under setting [7] was “inactive; negative”; the mutagenic call under setting [8] is “inactive; negative”; the mutagenic call under setting [9] is “inactive; negative”; the mutagenic call under setting [10] was “inactive; negative”. In addition, the mutagenic call is, setting by setting: under setting [11], “inactive; negative”; under setting [12], “inactive; negative”; under setting [13], “inactive; negative. reevaluation of results: negative”; under setting [14], “inactive; negative. reevaluation of results: negative”.
For the compound `CC(=O)Nc1ccc(Cc2ccc(NC(C)=O)cc2)cc1`, the mutagenic call under setting [2] was “inactive; negative”; the mutagenic call (Test System: AMES SALMONELLA TYPHIMURIUM, Strain/Indicator: TA98, Metabolic Activation: RAT, LIVER, S-9, PCB, Method: STANDARD PLATE) is “inactive; negative”; the mutagenic call under setting [5] is “inactive; negative”; the mutagenic call (Test System: AMES SALMONELLA TYPHIMURIUM, Strain/Indicator: TA100, Metabolic Activation: RAT, LIVER, S-9, PCB, Method: STANDARD PLATE) is “inactive; negative”.
`OC1C[C@]23C=CC=C[C@@]2(C1)O3` (stereo not given in full): the mutagenic call under setting [2] is “inactive; negative”; the mutagenic call under setting [5] was “inactive; negative”; the mutagenic call (Test System: AMES SALMONELLA TYPHIMURIUM, Strain/Indicator: TM677/8-AZAGUANINE, Metabolic Activation: NONE, Method: STANDARD PLATE) was “active; positive”.
On to `Cc1ccc2c(c1)-c1cc3ccccc3c3cc4ccccc4c-2c13`, for which the mutagenic call (Test System: AMES SALMONELLA TYPHIMURIUM, Strain/Indicator: TA100, Metabolic Activation: RAT, LIVER, S-9, 3-METHYLCHOLANTHRENE, Method: STANDARD PLATE) was “active; positive”.
Turning to `C=CC(=O)OCCCCC`, the mutagenic call by setting is: under setting [2], “inactive; negative”; under setting [3], “inactive; negative”; (Test System: AMES SALMONELLA TYPHIMURIUM, Strain/Indicator: TA98, Metabolic Activation: RAT, LIVER, S-9, SODIUM PHENOBARBITAL, Method: STANDARD PLATE) “inactive; negative”; under setting [5], “inactive; negative”; under setting [6], “inactive; negative”; (Test System: AMES SALMONELLA TYPHIMURIUM, Strain/Indicator: TA100, Metabolic Activation: RAT, LIVER, S-9, SODIUM PHENOBARBITAL, Method: STANDARD PLATE) “inactive; negative”. Further, the mutagenic call reads like this: under setting [8], “inactive; negative”; under setting [9], “inactive; negative”; (Test System: AMES SALMONELLA TYPHIMURIUM, Strain/Indicator: TA1535, Metabolic Activation: RAT, LIVER, S-9, SODIUM PHENOBARBITAL, Method: STANDARD PLATE) “inactive; negative”; under setting [11], “inactive; negative”; under setting [12], “inactive; negative”; (Test System: AMES SALMONELLA TYPHIMURIUM, Strain/Indicator: TA1537, Metabolic Activation: RAT, LIVER, S-9, SODIUM PHENOBARBITAL, Method: STANDARD PLATE) “inactive; negative”. The mutagenic call under setting [15] was “inactive; negative”; the mutagenic call under setting [16] is “inactive; negative”; the mutagenic call (Test System: AMES SALMONELLA TYPHIMURIUM, Strain/Indicator: TA1538, Metabolic Activation: RAT, LIVER, S-9, SODIUM PHENOBARBITAL, Method: STANDARD PLATE) was “inactive; negative”.
For `O=C(O)Cc1ccccc1Cl`, the mutagenic call reads like this: (Test System: AMES SALMONELLA TYPHIMURIUM, Strain/Indicator: TA98, Metabolic Activation: NONE, Method: PREINCUBATION) “inactive; negative”; (Test System: AMES SALMONELLA TYPHIMURIUM, Strain/Indicator: TA98, Metabolic Activation: RAT LIVER S-9, PCB, Method: PREINCUBATION) “inactive; negative”; (Test System: AMES SALMONELLA TYPHIMURIUM, Strain/Indicator: TA100, Metabolic Activation: NONE, Method: PREINCUBATION) “inactive; negative”; (Test System: AMES SALMONELLA TYPHIMURIUM, Strain/Indicator: TA100, Metabolic Activation: RAT LIVER S-9, PCB, Method: PREINCUBATION) “inactive; negative”; (Test System: AMES SALMONELLA TYPHIMURIUM, Strain/Indicator: TA104, Metabolic Activation: NONE, Method: PREINCUBATION) “inactive; negative”; (Test System: AMES SALMONELLA TYPHIMURIUM, Strain/Indicator: TA104, Metabolic Activation: RAT LIVER S-9, PCB, Method: PREINCUBATION) “inactive; negative”. Besides, the mutagenic call runs as follows: (Test System: E.COLI, Strain/Indicator: WP2 UVRA, Metabolic Activation: NONE, Method: PREINCUBATION) “inactive; negative”; (Test System: E.COLI, Strain/Indicator: WP2 UVRA, Metabolic Activation: RAT LIVER S-9, PCB, Method: PREINCUBATION) “inactive; negative”.
`Cc1cc(C)c2c(ccc3ccccc32)c1`: the mutagenic call is “inactive; negative” under setting [2], “inactive; negative” under setting [3], “inactive; negative” under setting [5] and “active; positive” under setting [6].
Take `OCc1cc2ccc3cccnc3c2[nH]1`: the mutagenic call under setting [2] is “inactive; negative” and the mutagenic call (Test System: E. COLI, Strain/Indicator: WP2 TM9, Metabolic Activation: NONE, Method: STANDARD PLATE) was “inactive; negative”.
In the case of `Nc1nc(Cl)cc(Cl)n1`, the mutagenic call under setting [1] is “inactive; negative”; the mutagenic call under setting [2] is “inactive; negative”; the mutagenic call under setting [3] is “inactive; negative”; the mutagenic call under setting [4] is “inactive; negative”; the mutagenic call under setting [5] is “inactive; negative”; the mutagenic call under setting [6] is “inactive; negative”. Further, the mutagenic call runs as follows: under setting [7], “inactive; negative”; under setting [8], “inactive; negative”; under setting [9], “inactive; negative”; under setting [10], “inactive; negative”; under setting [11], “inactive; negative”; under setting [12], “inactive; negative”. In addition, the mutagenic call is, setting by setting: (Test System: AMES SALMONELLA TYPHIMURIUM, Strain/Indicator: TA1538, Metabolic Activation: HAMSTER, LIVER, S-9, AROCLOR 1254, Method: STANDARD PLATE) “inactive; negative”; under setting [15], “inactive; negative”; under setting [16], “inactive; negative”; under setting [13], “active; positive. reevaluation of results: positive”; under setting [14], “active; positive. reevaluation of results: inconclusive”.
